These are literature values, as cited in patent publication US20090099177A1, “PYRIDYL COMPOUNDS” (priority 2006, published 2009).

For series [1], the target named is T1, EP1 receptor (Rattus norvegicus, UniProt P70597).
T1 sequence (P70597 1-405): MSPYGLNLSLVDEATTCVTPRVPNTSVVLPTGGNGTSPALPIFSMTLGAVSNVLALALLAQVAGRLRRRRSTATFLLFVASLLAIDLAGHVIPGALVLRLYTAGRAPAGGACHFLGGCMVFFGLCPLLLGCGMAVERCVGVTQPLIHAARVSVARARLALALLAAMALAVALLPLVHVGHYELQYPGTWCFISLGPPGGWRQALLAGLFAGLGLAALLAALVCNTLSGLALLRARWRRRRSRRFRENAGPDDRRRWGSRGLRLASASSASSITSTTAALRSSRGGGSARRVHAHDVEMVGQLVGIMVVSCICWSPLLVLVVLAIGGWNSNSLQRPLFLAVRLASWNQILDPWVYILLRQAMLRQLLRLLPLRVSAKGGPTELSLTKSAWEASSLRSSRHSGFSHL
The arrangement: host or cells: rodent, in vivo. The note with it: rodent, post-operative pain; cited from earlier work.

Series [2] has as its target T1, EP1 receptor. More on the design: host or cells: rat, in vivo. The note with it: chronic constriction injury; cited from earlier work.

For `Cc1cc(Cl)ccc1S(=O)(=O)NC[C@H]1C2CCC(CC2)[C@@H]1/C=C\CCCC(=O)O` [ONO-8711], at EP1 receptor [1], the mechanical hyperalgesia result is given as “inhibits mechanical hyperalgesia”. In addition, the hyperalgesia and allodynia entry on EP1 receptor [2] was “reduces hyperalgesia and allodynia”.
